Source: US12338199B2, “Bis-octahydrophenanthrene carboxamides and protein conjugates thereof” (REGENERON PHARMACEUTICALS, INC., priority 2017, dated 2025)
≈ marks a conversion by molar mass, not a printed value. Where two headings read alike, the source gives them in different places.

Tests used:
LXR beta = target: T1, LXR beta (Homo sapiens, UniProt P55055); experiment: LanthaScreen TR-FRET LXR beta Coactivator Assay (cell-free binding)
T1 construct: LXR alpha or beta LBD-GST; purchased ThermoFisher PV4658
T1 sequence (P55055 222-460 limits assumed): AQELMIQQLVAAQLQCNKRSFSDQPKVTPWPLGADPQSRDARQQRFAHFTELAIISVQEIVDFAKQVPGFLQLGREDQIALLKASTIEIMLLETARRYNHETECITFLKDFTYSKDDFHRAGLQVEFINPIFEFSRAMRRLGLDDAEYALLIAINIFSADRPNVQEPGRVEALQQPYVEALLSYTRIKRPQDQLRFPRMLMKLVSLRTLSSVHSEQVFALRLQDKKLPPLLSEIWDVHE
Description: (§1) To evaluate the ability of novel LXR agonists to bind to the LXR alpha and beta receptor, a cell-free binding assay was performed using a LanthaScreen TR-FRET LXR alpha Coactivator Assay Kit (ThermoFisher, Cat # PV4655) and LXR beta Coactivator Assay Kit (ThermoFisher, Cat # PV4658). The assay was performed according to the manufacturer's instructions. Briefly, a 3-fold serial dilution of LXR agonists were prepared in 100% DMSO starting at 100 μM (100× of final). Serial dilutions were further diluted 50-fold in nuclear receptor buffer F with 5 mM DTT, and transferred to a 384-well assay plate. Next, Fluorescein-D22, LXR alpha or beta LBD-GST, and Tb anti-GST antibody was sequentially added to 384-well assay plate. The plate was then incubated at rt for 2.5 hours while being protected from light. […] The IC50 values were determined using a four-parameter logistic equation over a 12-point response curve (GraphPad Prism).

LXR alpha = target: T2, LXR alpha (Homo sapiens, UniProt Q13133); experiment: LanthaScreen TR-FRET LXR alpha Coactivator Assay (cell-free binding)
T2 construct: LXR alpha or beta LBD-GST; purchased ThermoFisher PV4655
T2 sequence (Q13133 209-447 limits assumed): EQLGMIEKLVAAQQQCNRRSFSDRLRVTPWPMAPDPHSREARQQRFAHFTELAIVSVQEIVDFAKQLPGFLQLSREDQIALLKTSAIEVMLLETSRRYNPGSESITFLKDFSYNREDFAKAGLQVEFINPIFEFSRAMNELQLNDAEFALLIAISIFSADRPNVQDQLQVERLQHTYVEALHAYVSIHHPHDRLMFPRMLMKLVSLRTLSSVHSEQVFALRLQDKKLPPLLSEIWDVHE
Description: as §1

[1] = Water solubility and pH stability of phosphate analogs; format: physicochemical; conditions: for Stability: pH as given in the value, 17c converted to 17b in the presence of methanol
Description: The phosphoric acid-analog 17a was obtained from the treatment of phenol 9g with diphosphoryl chloride 18. Compounds 17b and 17c were obtained from the acidic deprotection of 17a with TFA.

THP1/LXR-Luc cells = experiment: THP1/LXR-Luc luciferase reporter bioassay; format: cell-based; conditions: Homo sapiens, THP-1, 48 hours; for EC50: read-out: Activation of THP1/LXR-Luc cells: EC50; for Emax: relative to maximum activation of free payload 9d, read-out: Activation of THP1/LXR-Luc cells: Fold of activation
Description: The fold activation in the cell-based assays (as described in Example 68, below) was defined based on the maximum activation of the free payload 9d.
(§2) A bioassay was developed to assess the activity of LXR agonists after internalization of an agonist or of a ncADC into cells and binding to LXR, a nuclear receptor, using a commercially available LXR reporter (referred to as LXR-Luc) that contains the firefly luciferase gene under control by minimal CMV promoter and tandem repeats of the LXR transcriptional response element. For this assay, a THP1 cell line, which is a human monocytic leukaemia line, was engineered to express full length human Her2 (expressing amino acids M1 through V1255 of accession number NP_004439.2). The subsequent stable cell line was further transduced with a Cignal LXR Luc Reporter (Qiagen, Cat # CLS-7041L). The resulting stable cell line is referred to herein as THP1/Her2/LXR-Luc. The Her2 cell surface expression on THP1/Her2/LXR-Luc cell line was confirmed by FACS (data not shown).
Additionally, a THP1 cell line was transduced with a Cignal LXR Luc Reporter (Qiagen, Cat # CLS-7041L) without the addition of Her2. The resulting stable cell line is referred to herein as THP1/LXR-Luc. All of the antibodies used in the subsequent bioassays were assessed for their ability to internalize and release a payload on the bioassay cell line used.
(§3) This example assessed the ability of the LXR agonists provided herein, reference compounds, and anti-Her2 antibody-LXR ncADC to activate LXR. The samples were tested in the THP1/LXR-Luc/Her2 bioassay. For the assay, either THP1/LXR-Luc cells or THP1/LXR-Luc/Her2 cells were seeded onto white 96 well plates at 30,000 cells/well in media containing RPMI supplemented with 10% FBS and pencillin/streptomycin (complete media). Subsequently 3-fold serial dilutions of antibody drug conjugates, unconjugated antibodies, or free payloads were added to the cells at final concentration ranging from 100 nM to 0.01 nM. After 48-hour or 72-hour incubation, luciferase activity was determined after the addition of One-Glo™ reagent (Promega, Cat # E6130) to each well of cells. Relative light units (RLUs) were measured on a Victor luminometer (PerkinElmer) and the EC5o values were determined using a four-parameter logistic equation over a 10-point dose response curve (GraphPad Prism) (FIG. 15). The fold activation is calculated based on the maximum activation of the free payload 9d.

LXRβ = target: T3, LXRβ (Homo sapiens, UniProt P55055); conditions: reported in Bioconjug Chem. 2015 26(11), 2216-22; cited from earlier work
T3 sequence (P55055 1-460): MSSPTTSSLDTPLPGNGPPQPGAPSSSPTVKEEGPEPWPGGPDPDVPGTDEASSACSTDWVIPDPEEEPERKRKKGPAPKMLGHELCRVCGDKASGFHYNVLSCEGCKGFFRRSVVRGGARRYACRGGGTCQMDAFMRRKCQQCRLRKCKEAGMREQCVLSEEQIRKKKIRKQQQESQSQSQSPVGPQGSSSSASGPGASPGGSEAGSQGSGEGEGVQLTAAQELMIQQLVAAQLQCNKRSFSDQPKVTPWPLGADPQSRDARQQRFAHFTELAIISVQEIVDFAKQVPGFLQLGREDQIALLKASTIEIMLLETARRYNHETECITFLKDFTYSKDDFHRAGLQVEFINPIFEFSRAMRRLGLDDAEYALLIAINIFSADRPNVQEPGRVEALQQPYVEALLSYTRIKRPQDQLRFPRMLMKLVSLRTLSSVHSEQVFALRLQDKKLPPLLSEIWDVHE

LXRα = target: T4, LXRα (Homo sapiens, UniProt Q13133); conditions: reported in Bioconjug Chem. 2015 26(11), 2216-22; cited from earlier work
T4 sequence (Q13133 1-447): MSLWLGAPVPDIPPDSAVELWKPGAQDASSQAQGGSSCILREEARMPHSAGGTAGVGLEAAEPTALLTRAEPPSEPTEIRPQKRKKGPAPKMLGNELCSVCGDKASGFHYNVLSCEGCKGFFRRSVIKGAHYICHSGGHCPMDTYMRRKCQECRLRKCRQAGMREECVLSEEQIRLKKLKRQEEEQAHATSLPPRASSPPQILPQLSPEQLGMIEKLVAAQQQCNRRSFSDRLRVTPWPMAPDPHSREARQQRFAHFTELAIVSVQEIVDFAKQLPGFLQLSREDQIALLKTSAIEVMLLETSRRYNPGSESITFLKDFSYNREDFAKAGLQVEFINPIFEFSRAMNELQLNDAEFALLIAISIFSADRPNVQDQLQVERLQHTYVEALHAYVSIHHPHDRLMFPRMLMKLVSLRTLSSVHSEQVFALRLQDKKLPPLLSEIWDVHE

ABCG1 = ABCG1 mRNA induction in differentiated THP-1 macrophages (TaqMan); format: cell-based, human; conditions: THP1 macrophages, 24-hour treatment; magnitude in words
Description: (§4) To determine the ability of LXR agonists to activate ABCA1 and ABCG1 genes, the mRNA levels of these two genes in differentiated macrophages was measured. […] Cells were differentiated into macrophages by treatment with 100 nM Phorbol-12 myristate 13-acetate (Sigma, # P8139), which was added to the media described above, for 72 hours. […] Chloroform was then used for phase separation. The aqueous phase, containing total RNA, was purified using MagMAX™-96 for Microarrays Total RNA Isolation Kit (Ambion, Cat # AM1830) and reverse-transcribed into cDNA using SuperScript® VILO™ Master Mix (Invitrogen, Cat #11755050) as per the manufacturer's instructions. TaqMan® was performed using Gene Expression Master Mix, the ABI 7900HT Sequence Detection System (Applied Biosystems) and the primers and probes indicated below in Table 9. The GAPDH gene was used as the internal control gene to normalize any cDNA input differences.

THP1/LXR-Luc/Her2 cells = experiment: THP1/LXR-Luc/Her2 luciferase reporter bioassay; format: cell-based; conditions: Homo sapiens
Description: as §2, §3

ABCA1 = ABCA1 mRNA induction in differentiated THP-1 macrophages (TaqMan); format: cell-based, human; conditions: THP1 macrophages, 24-hour treatment; magnitude in words
Description: as §4

Solubility in water = format: physicochemical; conditions: H2O
Description: To a solution of compound LP2-6 (4.3 mg, 7.8 μmol) in anhydrous DMF (1 mL) was added HATU (3.0 mg, 7.8 μmol). The mixture was stirred at 10° C. for 10 minutes before compound LP2-5 (15 mg, 6.5 μmol) and DIPEA (1.7 mg, 13 μmol) was added. The mixture was stirred at RT for 2 hours until LP2-5 was totally consumed, as monitored by LCMS. […]

[2] = TR-FRET, 12-point curve, read-out: Cell free binding LXRβ IC50
[3] = TR-FRET, 12-point curve, read-out: Cell free binding LXRα IC50

SMILES	IC50 (LXR beta) [nM]	IC50 (LXR alpha) [nM]	Stability [1]	EC50 (THP1/LXR-Luc cells) [nM]	Emax (THP1/LXR-Luc cells) [%]	IC50 (LXR beta; [2]) [nM]	IC50 (LXR alpha; [3]) [nM]	other results
C[C@]1(C(=O)NC(=O)[C@@]2(C)CCC[C@]3(C)c4cc(OP(=O)(O)O)ccc4CC[C@@H]23)CCC[C@]2(C)c3cc(N)ccc3CC[C@@H]12 [Compound 17c, (4bS,8S,8aR)-8-((1S,4aS,10aR)-6-Amino-1,4a-dimethyl-1,2,3,4,4a,9,10,10a-octahydrophenanthrene-1-carbonylcarbamoyl)-4b,8-dimethyl-4b,5,6,7,8,8a,9,10-octahydrophenanthren-3-yl dihydrogen phosphate]	< 10	> 100	not stable at pH 5	≤ 1	> 75			Solubility in water ([1]; under basic and neutral conditions): soluble in water
CCc1cnc2c(C(F)(F)F)cccc2c1-c1cccc(Oc2cccc(S(=O)(=O)N(C)CCN)c2)c1 [Compound 31, N-(2-Aminoethyl)-3-(3-(3-ethyl-8-(trifluoromethyl)quinolin-4-yl)phenoxy)-N-methylbenzenesulfonamide, reference compound]				10 to 100	25 to 75	< 10	< 10	binding affinity to LXRβ (LXRβ): 12 nM; binding affinity to LXRα (LXRα): 1.5 nM
COP(=O)(O)Oc1ccc2c(c1)[C@@]1(C)CCC[C@](C)(C(=O)NC(=O)[C@@]3(C)CCC[C@]4(C)c5cc(N)ccc5CC[C@@H]34)[C@@H]1CC2 [Compound 17b, (4bS,8S,8aR)-8-((1S,4aS,10aR)-6-Amino-1,4a-dimethyl-1,2,3,4,4a,9,10,10a-octahydrophenanthrene-1-carbonylcarbamoyl)-4b,8-dimethyl-4b,5,6,7,8,8a,9,10-octahydrophenanthren-3-yl methyl hydrogen phosphate]	< 10	10 to 100	stable at pH 5-8	10 to 100	> 75			
C[C@]1(C(=O)NC(=O)[C@@]2(C)CCC[C@]3(C)c4cc(NC(=O)CN)ccc4CC[C@@H]23)CCC[C@]2(C)c3cc(O)ccc3CC[C@@H]12 [Compound 9h, (1S,4aS,10aR)-6-(2-Aminoacetamido)-N-((1S,4aS,10aR)-6-hydroxy-1,4a-dimethyl-1,2,3,4,4a,9,10,10a-octahydrophenanthrene-1-carbonyl)-1,4a-dimethyl-1,2,3,4,4a,9,10,10a-octahydrophenanthrene-1-carboxamide]				≤ 1	> 75	< 1	< 1	ABCG1 induction EC50 (ABCG1): sub-picomolar; EC50 (THP1/LXR-Luc/Her2 cells; THP-1, 48 h, 48-hour time point): 0.5 nM; EC50 (THP1/LXR-Luc/Her2 cells; THP-1, 48 h, 48 hours, unit inferred, values correspond to M): 0.5 nM; EC50 (THP1/LXR-Luc/Her2 cells; THP-1, 72 h, 72-hour time point): 0.65 nM; EC50 (THP1/LXR-Luc/Her2 cells; THP-1, 72 h, 72 hours): 0.65 nM; ABCA1 induction EC50 (ABCA1): sub-picomolar
CC(C)[C@H](NC(=O)[C@@H](CCCCNC(=O)COC1CCCCCc2c1nnn2CC1OC2OC3C(CO)OC(OC4C(CO)OC(OC5C(CO)OC(OC6C(CO)OC(OC7C(CO)OC(OC8C(CO)OC(OC9C(CO)OC(OC1C(O)C2O)C(O)C9O)C(O)C8O)C(O)C7O)C(O)C6O)C(O)C5O)C(O)C4O)C(O)C3O)NC(=O)CCOCCOCCOCCOCCNC(=O)CCC(=O)N1Cc2ccccc2C#Cc2ccccc21)C(=O)N[C@@H](C)C(=O)Nc1ccc2c(c1)[C@@]1(C)CCC[C@](C)(C(=O)NC(=O)[C@@]3(C)CCC[C@]4(C)c5cc(O)ccc5CC[C@@H]34)[C@@H]1CC2 (stereo partly shown) [LP32]								solubility (Solubility in water): 75 µg/mL (≈ 26.3 µM)
